Source: patent US20170298056A1, “SMALL MOLECULE INHIBITORS OF HIV-1 ENTRY AND METHODS OF USE THEREOF” (Dana-Farber Cancer Institute, Inc., priority 2014, published 2017)
Where two headings read alike, the source gives them in different places.

Key:
HIV-1JR-FL = experiment: Viral infection assay, recombinant HIV-1 pseudotyped with JR-FL Env (wild type and mutants), Cf2Th-CD4/CCR5 cells; format: cell-based; settings: for Fold change: mutant/wild-type IC50
Text: HIV-1 Env mutants. Mutations were introduced into the plasmid expressing the fulllength HIV-1YU2 or HIV-1JR-FL Envs using the QuikChange II site-directed mutagenesis protocol or the QuikChange multi site-directed mutagenesis kit (Stratagene). The presence of the desired mutations was confirmed by DNA sequencing. All HIV-1 Env residues are numbered based on alignment with the HXBc2 prototypic sequence, according to current convention.
(§1) Production of recombinant HIV-1 expressing luciferase. […] After 48 hours, the supernatant was collected, buffered with 50 mM Hepes pH 7.4 (final concentration) and centrifuged for 5 minutes at 750×g and 4° C. The virus-containing supernatant was used directly or frozen at −80° C.
(§2) Viral infection assay. Each test compound was serially diluted in DMSO in a 96-well B&W isoplate (PerkinElmer, Boston, Mass.) using an HP D300 Digital Dispenser, to a final volume of 450 nl. DMSO was used as a control. Viruses pseudotyped with a specific Env were added to each well and incubated briefly at room temperature. Cf2Th-CD4/CCR5 cells were detached with StemPro Accutase Cell Dissociation Reagent (Invitrogen, cat #A11105-01), washed once, and 5000 cells were added to each well. […] Following incubation, the medium was aspirated and cells were lysed with 30 μl of Passive Lysis Buffer (Promega, cat #E1941). The activity of the firefly luciferase, which was used as a reporter protein in the system, was measured with a Centro LB 960 luminometer (Berthold Technologies, Oak Ridge, Tenn.). One hundred microliters of assay buffer (15 mM MgSO4, 15 mM KH2PO4/K2HPO4 pH 7.8, 1 mM ATP and 1 mM DTT) was injected to each well, followed by a 50 μl injection of 1 mM Dluciferin potassium salt (BD Pharmingen, San Jose, Calif.); luminescence was measured for 2 sec. Infection of PBMC was done as above, but 20,000-40,000 cells/well and viruses concentrated by ultracentrifugation were used. After four hours of incubation with viruses, the cells were centrifuged at 200×g for 6 minutes at 4° C., resuspended in 100 μl RPMI-PBMC medium and incubated at 37° C. for an additional 36-40 hours (total 40-44 hours). Supernatant was removed after centrifugation at 400×g for 5 minutes and cells were processed to detect luciferase activity, as described above.

[1] = tested on: JR-FL and KB9 Env chimeras; experiment: Viral infection assay, JR-FL/KB9 Env chimeras; format: cell-based, HIV-1
Procedure: as §1, §2

Cf2Th-CD4/CCR5 cells = experiment: Viability assay (CellTiterGlo), CD4/CCR5-expressing target cells; format: cell-based; settings: read-out: half-maximal cytotoxic concentration (CC50)
Procedure: Viability Assay. As part of the secondary screen, cells were incubated for ˜20 hours in 384-well plates in a final volume of 45 μl growth medium at 37° C. The plate was equilibrated to room temperature, 15 μl of CellTiterGlo (Promega) was added to each well and luminescence was measured as described above. The viability assay with 18A was done in parallel to the viral infection assay for the same length of time. 18A was diluted using an HP D300 Digital Dispenser in a 96-well B&W isoplate and cells were added. After incubation of 26-30 hours (Cf2Th cells) or 40-44 hours (PBMC). 30 μl (Cf2Th cells) or 100 μl (PBMC) of CellTiterGlo was added and luminescence was measured as described above.

HIV-1JR-FL gp120 = experiment: ELISA, binding of monoclonal antibodies to gp120 in presence of compound; settings: preincubation of gp120 with 18A
Procedure: Enzyme-linked immunosorbent assay (ELISA). […] Wells were blocked with blocking buffer (5% nonfat dry milk (Bio-Rad) in PBS) for 2 hours and then washed twice with PBS. Between 0.25 and 0.5 μg of purified HIV-1JR-FL gp120 in blocking buffer was added to each well; the plate was incubated for 60 minutes and washed thrice with PBS. […] The plate was incubated for a further 30 minutes and washed thrice with 0.05% Tween in PBS and thrice with PBS. […] The plate was incubated for 30 minutes, washed three times with 0.05% Tween in PBS and three times with PBS, as before, and 80 μl of SuperSignal chemiluminescent substrate (Pierce) was added to each well. The relative light units in each well were measured for 2 sec with a Centro LB 960 luminometer (Berthold Technologies). All procedures were performed at room temperature. Cellbased ELISA was performed.

[2] = Env with KB9 gp120 and JR-FL gp41

`O=C(N/N=C/c1ccc(O)cc1)Nc1cccc2nsnc12` [Compound 18A] showed an IC50 (HIV-1JR-FL; Example 8 table, read-out: IC50 (JR-FL)) of 3.6 µM, a Fold change (HIV-1JR-FL; JR-FL Env D167A) of 1.5 and an IC50 (HIV-1JR-FL; JR-FL Env D167A, read-out: IC50) of 5.3 ± 1.5 µM. For the same compound, the Fold change (HIV-1JR-FL; JR-FL Env E153A) was 0.9, the IC50 (HIV-1JR-FL; JR-FL Env E153A, read-out: IC50) was 3.1 ± 0.7 µM and the Fold change (HIV-1JR-FL; JR-FL Env E168K + N188A) was 0.7. For the same compound, the Fold change (HIV-1JR-FL; JR-FL Env I109W) was 0.4, the IC50 (HIV-1JR-FL; JR-FL Env I109W, read-out: IC50) was 1.6 ± 0.8 µM and the Fold change (HIV-1JR-FL; JR-FL Env I154A) was 4.8. It also gave an IC50 (HIV-1JR-FL; JR-FL Env I154A, read-out: IC50) of 17.1 ± 0.9 µM, a Fold change (HIV-1JR-FL; JR-FL Env I194A) of 0.5 and an IC50 (HIV-1JR-FL; JR-FL Env I194A, read-out: IC50) of 1.8 ± 0.4 µM. It also gave a Fold change (HIV-1JR-FL; JR-FL Env I424A) of 4.5, an IC50 (HIV-1JR-FL; JR-FL Env I424A, read-out: IC50) of 16.2 ± 2 µM and a Fold change (HIV-1JR-FL; JR-FL Env K155A) of 0.6. It also gave an IC50 (HIV-1JR-FL; JR-FL Env K155A, read-out: IC50) of 2.1 ± 0.9 µM, a Fold change (HIV-1JR-FL; JR-FL Env K178A) of 0.4 and an IC50 (HIV-1JR-FL; JR-FL Env K178A, read-out: IC50) of 1.6 ± 0.3 µM. For the same compound, the Fold change (HIV-1JR-FL; JR-FL Env L175A) was 2.1, the IC50 (HIV-1JR-FL; JR-FL Env L175A, read-out: IC50) was 7.7 ± 1.2 µM and the Fold change (HIV-1JR-FL; JR-FL Env L179G) was 1.8. It also gave an IC50 (HIV-1JR-FL; JR-FL Env L179G, read-out: IC50) of 6.5 ± 0.7 µM, a Fold change (HIV-1JR-FL; JR-FL Env L193A) of 5.0 and an IC50 (HIV-1JR-FL; JR-FL Env L193A, read-out: IC50) of 18.1 ± 2 µM. For the same compound, the Fold change (HIV-1JR-FL; JR-FL Env M147A) was 1.3, the IC50 (HIV-1JR-FL; JR-FL Env M147A, read-out: IC50) was 4.8 ± 1.2 µM and the Fold change (HIV-1JR-FL; JR-FL Env M434A) was 5.0. It also gave an IC50 (HIV-1JR-FL; JR-FL Env M434A, read-out: IC50) of 17.9 ± 1.2 µM, a Fold change (HIV-1JR-FL; JR-FL Env N136A) of 0.5 and an IC50 (HIV-1JR-FL; JR-FL Env N136A, read-out: IC50) of 1.8 ± 0.1 µM. It also gave a Fold change (HIV-1JR-FL; JR-FL Env N139A) of 0.5, an IC50 (HIV-1JR-FL; JR-FL Env N139A, read-out: IC50) of 1.9 ± 0.2 µM and a Fold change (HIV-1JR-FL; JR-FL Env N141A) of 0.5. It also gave an IC50 (HIV-1JR-FL; JR-FL Env N141A, read-out: IC50) of 1.7 ± 0.3 µM, a Fold change (HIV-1JR-FL; JR-FL Env N156A) of 5.2 and an IC50 (HIV-1JR-FL; JR-FL Env N156A, read-out: IC50) of 18.7 ± 1.5 µM. It also gave a Fold change (HIV-1JR-FL; JR-FL Env N187A + N188A) of 0.7, a Fold change (HIV-1JR-FL; JR-FL Env N188A) of 1.2 and an IC50 (HIV-1JR-FL; JR-FL Env N188A, read-out: IC50) of 4.2 ± 0.8 µM. For the same compound, the Fold change (HIV-1JR-FL; JR-FL Env Q114E) was 0.9, the IC50 (HIV-1JR-FL; JR-FL Env Q114E, read-out: IC50) was 3.4 ± 0.6 µM and the Fold change (HIV-1JR-FL; JR-FL Env Q422A) was 2.2. It also gave an IC50 (HIV-1JR-FL; JR-FL Env Q422A, read-out: IC50) of 7.8 ± 1.7 µM, a Fold change (HIV-1JR-FL; JR-FL Env R166A) of 0.8 and an IC50 (HIV-1JR-FL; JR-FL Env R166A, read-out: IC50) of 2.9 ± 0.6 µM. It also gave a Fold change (HIV-1JR-FL; JR-FL Env T143A + S146A) of 0.7, a Fold change (HIV-1JR-FL; JR-FL Env T163A + S164A) of 0.8 and a Fold change (HIV-1JR-FL; JR-FL Env V134A) of 0.8. The IC50 (HIV-1JR-FL; JR-FL Env V134A, read-out: IC50) was 2.8 ± 2.1 µM, the Fold change (HIV-1JR-FL; JR-FL Env V430S) was 0.2 and the IC50 (HIV-1JR-FL; JR-FL Env V430S, read-out: IC50) was 0.7 ± 0.3 µM. The Fold change (HIV-1JR-FL; JR-FL Env W112A) was 0.8, the IC50 (HIV-1JR-FL; JR-FL Env W112A, read-out: IC50) was 2.8 ± 0.7 µM and the Fold change (HIV-1JR-FL; JR-FL Env W479A) was 0.2. It also gave an IC50 (HIV-1JR-FL; JR-FL Env W479A, read-out: IC50) of 0.8 ± 0.2 µM, a Fold change (HIV-1JR-FL; JR-FL Env Y173A) of 0.9 and an IC50 (HIV-1JR-FL; JR-FL Env Y173A, read-out: IC50) of 3.1 ± 1.2 µM. For the same compound, the Fold change (HIV-1JR-FL; JR-FL Env Y177A) was 2.8, the IC50 (HIV-1JR-FL; JR-FL Env Y177A, read-out: IC50) was 10.2 ± 1 µM and the Fold change (HIV-1JR-FL; JR-FL Env Y435A) was 3.5. For the same compound, the IC50 (HIV-1JR-FL; JR-FL Env Y435A, read-out: IC50) was 12.7 ± 3.5 µM, the IC50 (HIV-1JR-FL; JR-FL Env double mutant E168K + N188A, read-out: IC50) was 2.4 ± 1.4 µM and the IC50 (HIV-1JR-FL; JR-FL Env double mutant N187A + N188A, read-out: IC50) was 2.5 ± 0.6 µM. The IC50 (HIV-1JR-FL; JR-FL Env double mutant T143A + S146A, read-out: IC50) was 2.4 ± 0.2 µM, the IC50 (HIV-1JR-FL; JR-FL Env double mutant T163A + S164A, read-out: IC50) was 2.7 ± 0.3 µM and the Fold change (HIV-1JR-FL; JR-FL Env wild type) was 1. The IC50 (HIV-1JR-FL; JR-FL Env wild type, read-out: IC50) was 3.6 µM, the “Therapeutic Index (TI)” value (HIV-1JR-FL; calculated from IC50 against JR-FL and A-MLV) was 15.9 and the “effect of glycosidase inhibitor treatment of virions on 18A inhibition” value (HIV-1JR-FL; virions produced in the presence of two glycosidase inhibitors) was “Neither treatment had a significant effect”. For the same compound, the sensitivity to inhibition ([1]; Env with JR-FL gp120 and KB9 gp41) was “nearly as sensitive as the parental JR-FL Env”, the “fold more sensitive than parental KB9 Env” value [1, 2] was 2 fold and the “fold resistance relative to JR-FL Env” value [1, 2] was “about 5 fold”. For the same compound, the sensitivity to inhibition ([1]; major variable loops of JR-FL gp120 grafted onto KB9 Env) was “nearly as sensitive to 18A inhibition as JR-FL”, the CC50 (Cf2Th-CD4/CCR5 cells) was 44 µM and the “binding of E51, 17b and 412d (CD4i) antibodies to gp120” value (HIV-1JR-FL gp120) was “modest but reproducible decrease”. For the same compound, the “binding of most monoclonal antibodies to gp120” value (HIV-1JR-FL gp120) was “not affected”.
